In US12544355B2, “Use of monascinol in preparation of fat-reducing product” (TIANJIN UNIVERSITY OF SCIENCE AND TECHNOLOGY, priority 2019, dated 2026):
Marks after values point to notes of the source that are not given here. Blank lines part the entries; values can stand above or below the compound they belong to.

What was measured:
[1] = system: HepG2 cells modeled with oleic acid; experiment: Oil red O staining of lipid drops in HepG2 cells modeled with oleic acid; assay type: cell-based; conditions: 2 μg/mL, inverted microscope ×400
Experimental: (§1) HepG2 cells in good growth condition were inoculated in a 6-well plate at 2*10^5 cells/mL, 1 mL per well. When cell adhesion rate reached 80%-90%, the medium was discarded. A blank group and a model group were set, where a complete medium was added to the blank group, 0.3 mmol/L oleic acid induction solution diluted with a complete medium was added to the model group, at 2 mL per well; after 24 hours of culture, the accumulation of lipid drops in the cells was observed by oil red 0 staining.
(§2) On day 1, blank control group: normally cultured HepG2 cells without treatment; oleic acid modeling group (the concentration of oleic acid is 0.3 mmol/L): normally culture HepG2 cells modeled with oleic acid without treatment; MC group: HepG2 cells modeled with oleic acid were administered with 2 μg/mL of Monascinol, i.e., MC; MS group: HepG2 cells modeled with oleic acid were administered with 2 μg/mL of Monascin (MS).
Morphological observation was further carried out by oil red 0 staining, and the results are shown in FIGS. 5A-5C (inverted microscope×400), FIG. 5A is a diagram of lipid accumulation in HepG2 cells of an oleic acid modeling group; FIG. 5B is a diagram of lipid accumulation in HepG2 cells of an MS group; FIG. 5C is a diagram of lipid accumulation in HepG2 cells of an MC group. […] This is consistent with the test result of TG.

[2] = system: Golden Syrian hamsters fed with high-fat diet; experiment: High-fat diet hamster experiment, 10 weeks gavage; assay type: in vivo, Golden Syrian hamster
Experimental: 24 male Golden Syrian hamsters (hamsters for short) used in the animal experiment were purchased from Beijing Vital River Laboratory Animal Technology Co., Ltd., weighing 110-120 g, and aged 8 weeks.
After acclimation for a period of time, they were randomly divided into 3 groups, each with 8 animals, and the grouping and experiments were carried out as follows:
Every day starting from Day 1: • Normal group (NOR): take normal-chow diet freely, and gavage the same amount of CMC-Na solution as the MC group; • High fat group (HFD): take high-fat chow diet freely, and gavage the same amount of CMC-Na solution as the MC group; • MC group: take high-fat chow diet freely, and gavage MC (dissolved in CMC-Na solution) at a dose of 20 mg/kg body weight.
The weight and food intake of the hamsters were measured every week. After 10 weeks, tissue samples or serum samples were collected and the following analysis was performed.
TC and TG in the liver were extracted based on the Folch method, the TC and TG detection kits produced by Nanjing Jiancheng Bioengineering Institute was used to detect the contents of TC and TG in liver tissue according to the method provided in the instructions.
Cobas8000 E602 full-automatic biochemical analyzer (Roche Diagnostics Co., Ltd., Germany) was used to measure TC and TG in serum of collected serum samples.

pancrelipase = molecular target: T1, pancrelipase (Sus scrofa, UniProt P00591); experiment: Type of inhibition on pancrelipase (order of addition, Lineweaver-Burk double reciprocal plot); assay type: biochemical, porcine; conditions: 160 μg/mL MC, lipase 1 mg/mL
T1 construct: pancrelipase (Type II, derived from a porcine pancreas); from tissue; host or cells: porcine pancreas
T1 sequence (P00591 1-450): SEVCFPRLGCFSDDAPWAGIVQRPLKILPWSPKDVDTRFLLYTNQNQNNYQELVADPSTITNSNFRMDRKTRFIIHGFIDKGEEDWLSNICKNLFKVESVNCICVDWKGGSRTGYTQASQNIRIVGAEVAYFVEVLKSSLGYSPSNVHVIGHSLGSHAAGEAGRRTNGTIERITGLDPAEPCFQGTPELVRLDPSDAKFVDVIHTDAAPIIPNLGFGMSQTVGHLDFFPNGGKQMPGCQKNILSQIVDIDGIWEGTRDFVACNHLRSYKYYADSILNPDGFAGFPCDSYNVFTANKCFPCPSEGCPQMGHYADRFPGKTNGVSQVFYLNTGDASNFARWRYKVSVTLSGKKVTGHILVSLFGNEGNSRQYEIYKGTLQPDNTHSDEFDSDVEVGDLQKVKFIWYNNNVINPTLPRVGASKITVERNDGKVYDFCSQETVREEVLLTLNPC
Experimental: According to different forms and characteristics of binding between enzymes and inhibitors, the inhibitions can be divided into two types: reversible inhibition and irreversible inhibition. The irreversible inhibition usually binds to a group in an enzyme protein by a relatively strong covalent bond to inactivate an enzyme. […] In this part of experiment, MS and AK were used as controls, and the type of inhibition of MC was determined by changing the order of adding reactants, the intervention concentrations of the three pigment inhibitors were all 80 μg/mL. […]
The type of inhibition of MC on pancrelipase was determined based on the results of Lineweaver-burk double reciprocal plot method as follows.
A basic process of experiment of drawing the Lineweaver-Burk curve was: under the condition of a determined lipase concentration (1 mg/mL), the enzymatic reaction rates were measured with a series of different substrate concentrations. […]

[3] = molecular target: T2, pancrelipase (Type II, derived from a porcine pancreas) (Sus scrofa, UniProt P00591); experiment: Inhibitory activity on pancrelipase, 4-MUO substrate, fluorescence detection; assay type: biochemical; conditions: 4-MUO 0.1 mM, lipase 1 mg/mL, 30 mins at 25° C.
T2 construct: pancrelipase (Type II, derived from a porcine pancreas); from tissue; host or cells: porcine pancreas
T2 sequence (P00591 1-450): T1 sequence (P00591 1-450)
Text: In an experiment, 4-methylumbelliferyl oleate (4-MUO) was used as a substrate and a fluorescence detection method was used to evaluate the inhibitory activity of MC on pancrelipase (Type II, derived from a porcine pancreas).
The following groups were set (see also Table 1): • Blank group: no MC sample, only substrate, pancrelipase and Tris-HCL buffer; • Blank background group: no MC sample and pancrelipase, only substrate and Tris-HCL buffer; • Sample background group: no pancrelipase, only MC sample, substrate and Tris-HCL buffer; • Sample group: no Tris-HCL buffer, only MC sample, substrate and pancrelipase.
The inhibition rate was calculated according to the following formula: Inhibition rate (%)=[(A1−A2)−(A3−A4)]/(A1−A2)×100
A1: Fluorescence value in blank group; A2: Fluorescence value in blank background group; A3: Fluorescence value in sample group; and A4: Fluorescence value in sample background group.
Three parallel experiments were set for each group, in which the concentration of 4-MUO is 0.1 mM, and the MC samples were dissolved in DMSO (set 6 different concentrations: 5, 10, 20, 40, 80 and 160 μg/mL), the concentration of the lipase solution is 1 mg/mL. […] Therefore, the product 4-methylumbelliferone was determined under conditions of an excitation wavelength of 360±40 nm and an emission wavelength 460±40 nm. […]

[4] = system: HepG2 cells modeled with oleic acid; experiment: Cytotoxicity (MTT) on HepG2 cells modeled with oleic acid; assay type: cell-based; conditions: 24 h, 0.3 mmol/L oleic acid
Experimental: as §1
• a. HepG2 cells in good growth condition were inoculated in a 96-well plate at 5*10^4 cells/mL, 100 μL per well. When the cell adhesion rate reached 80%-90%, the medium was discarded. • b. MS and MC were each dissolved in dimethyl sulfoxide (DMSO) to prepare a 5 mg/mL of mother liquid, and the mother liquid was stored at −20° C. The 5 mg/mL of mother liquid was diluted with a complete medium containing 0.3 mmol/L of oleic acid to obtain MS sample concentrations or MC sample concentrations (2, 4, 6, 8, 10, 12 μg/mL) required for the experiment, ensuring that a final concentration of DMSO in each sample is 0.5%. • c. […]
After 24 h, the survival rate of HepG2 cells in each group was detected based on a MTT experiment method. • d. results are shown in FIG. 2.

[5] = system: HepG2 cells modeled with oleic acid; experiment: Triglyceride content in HepG2 cells modeled with oleic acid (triglyceride kit); assay type: cell-based; conditions: 24 h, 0.3 mmol/L oleic acid; for reduce the TG content in cells by: Example 3, 2 μg/mL
Experimental: • a. HepG2 cells in good growth condition were inoculated in a 6-well plate at 2*10^5 cells/mL, 1 mL per well, cultured for 12 h, and after the cells adhered to the wall, the medium was discarded. • b. after the medium was discarded, a blank group, a modeling group and a dosing group were set. • Blank control group: added with 2 mL of a complete medium per well; • Oleic acid modeling group: added with 2 mL of a complete medium containing 0.3 mmol/L of oleic acid per well; • MC low dose group: added with 2 mL of a complete medium containing 0.3 mmol/L of oleic acid and 2 μg/mL of Monascinol per well; • MC middle dose group: added with 2 mL of a complete medium containing 0.3 mmol/L of oleic acid and 4 μg/mL of Monascinol per well; • MC high dose group: added with 2 mL of a complete medium containing 0.3 mmol/L of oleic acid and 8 μg/mL of Monascinol per well; • After completing the administration, the cells of each group were cultured for 24 hours and then collected, a triglyceride kit (Beijing Applygen Technologies Inc.) was utilized to measure the content of triglyceride in HepG2 cells of each group. • c. results are shown in FIG. 3. Different letters indicate significant differences from the blank group, P<0.01.
Firstly, normal HepG2 cells were obtained, and HepG2 cells modeled with oleic acid were obtained according to the method in Example 1 (a concentration of oleic acid was 0.3 mmol/L).
as §2
After completing the administration, the cells of each group were cultured for 24 hours and then collected, a triglyceride kit (Beijing Applygen Technologies Inc.) was utilized to measure the content of triglyceride in HepG2 cells of each group, results are shown in FIG. 4.

[6] = high-fat diet, gavage 20 mg/kg body weight daily
[7] = histology, 100× and 400× light microscope, 20 mg/kg

type of inhibition on pancrelipase (pancrelipase): anti-competitive inhibition | IC50 [3]: 219 µM
Compound: C/C=C/C1=CC2=C(CO1)C[C@]1(C)OC(=O)[C@H](C(O)CCCCC)[C@H]1C2 (stereo partly drawn) [MC, Monascinol]
lipid drops in the cells, oil red O staining vs oleic acid modeling group [1]: reduce lipid drops in the cells and lighten color | Fat index (weight of perirenal and periepididymal fat pad/weight of body) [2, 6]: 3.56 ± 0.26^a | Liver tissue TC [2, 6]: 20.66 ± 0.58^c mg/g | Liver tissue TG [2, 6]: 9.62 ± 0.34^a mg/g | Liver weight [2, 6]: 4.21 ± 0.17^a g | Serum TC [2, 6]: 4.73 ± 0.21^b mmol/L | Serum TG [2, 6]: 2.97 ± 0.39^c mmol/L | Weight gain [2, 6]: 22.33 ± 4.12^c g | Weight of periepididymal fat pad [2, 6]: 2.99 ± 0.28^a g | Weight of perirenal fat pad [2, 6]: 1.62 ± 0.19^a g | adipose tissue sections: volume of periepididymal and perirenal adipose cells vs HFD group [2, 7]: significantly smaller volume than that in the HFD group | liver tissue sections: lipid accumulation in liver cells vs HFD group [2, 7]: significantly reduced | survival rate of cells ([4]; administration concentration 12 μg/mL): 66.7% | TG content in the cells decreased by (vs modeling group) ([5]; Example 2, 2 μg/mL): 38.9% | TG content in the cells decreased by (vs modeling group) ([5]; Example 2, 4 μg/mL): 34.6% | TG content in the cells decreased by (vs modeling group) ([5]; Example 2, 8 μg/mL): 51.3% | reduce the TG content in cells by [5]: 33.3%

Compound: C/C=C/C1=CC2=C(CO1)C(=O)[C@]1(C)OC(=O)[C@H](C(=O)CCCCC)[C@H]1C2 [MS, Monascin]
survival rate of cells ([4]; administration concentration 10 μg/mL or more): 36.7% | reduce the TG content in cells by [5]: 26.3%
